Measured values as given in PMC3121697, “Predicting Binding to P-Glycoprotein by Flexible Receptor Docking” (PLoS Computational Biology, 2011).

test system: P-gp; test: not given; design: method as in Aller paper [29]; settings: reported value; ref Aller paper [29]; read-out: IC50 for inhibition of verapamil-stimulated ATPase activity; cited from earlier work

Molecule | IC50 [µM]
QZ59-RRR | 4.8 ± 2.6

test system: P-gp; test: not given; settings: metabolites with favorable scores reassigned to the binders set; cited from earlier work

Molecule | Reported interaction with P-gp
CC(=O)[C@H]1CC[C@H]2[C@@H]3CCC4=CC(=O)CC[C@]4(C)[C@H]3CC[C@]12C [Progesterone**, Progesterone] | interact with P-gp
C=C1CC[C@H](O)C/C1=C/C=C1\CCC[C@]2(C)[C@@H]([C@H](C)CCCC(C)C)CC[C@@H]12 [Vitamin D3**, Vitamin D3] | interact with P-gp
NC(Cc1cc(I)c(Oc2cc(I)c(O)c(I)c2)c(I)c1)C(=O)O (stereo not shown) [Thyroxine**, Thyroxine] | interact with P-gp
CC(C)CCC[C@@H](C)[C@H]1CC[C@H]2[C@@H]3CC=C4C[C@@H](O)CC[C@]4(C)[C@H]3CC[C@]12C [Cholesterol**, Cholesterol] | interact with P-gp

test system: not listed separately; test: in vitro; settings: dog, MDCK-MDR1, pH 7.4
Experimental: (§1) Permeability measurements were performed by Wuxi Apptec, using the following procedures.
(§2) Test compounds were diluted with the transport buffer (HBSS, pH 7.4) from a 10 mM stock solution to a concentration of 2 µM and applied to the apical (A) or basolateral (B) side of the cell monolayer. […] In addition, the efflux ratio of each compound was also determined. Test and reference compounds were quantified by LC-MS/MS analysis based on the peak area ratio of analyte/IS.
(§3) The apparent permeability coefficient Papp (cm/s) was calculated using the equation: [drawing 1] where dCr/dt is the cumulative concentration of compound in the receiver chamber as a function of time (µM/s); Vr is the solution volume in the receiver chamber (0.075 mL on the apical side, 0.25 mL on the basolateral side); A is the surface area for the transport, i.e. 0.084 cm^2 for the area of the monolayer; C0 is the initial concentration in the donor chamber (µM).
(§4) The efflux ratio (ER) was calculated using the equation: [drawing 2]
(§5) Percent recovery was calculated using the equation: [drawing 3] Where Vd is the volume in the donor chambers (0.075 mL on the apical side, 0.25 mL on the basolateral side); Cd and Cr are the final concentrations of transport compound in donor and receiver chambers, respectively. Cc is the compound concentration in the cell lysate solution (µM), and Vc is the volume of insert well (0.075 mL in this assay).
(§6) Permeability determinations were performed in triplicate and are reported as mean values.

Molecule | Papp B→A at 150 min, 2 µM [×10⁻⁶ cm/s] | Papp at 150 min, 2 µM [×10⁻⁶ cm/s]
N#CCNC(=O)[C@H](Cc1c[nH]cn1)NC(=O)OCc1ccccc1 [Compound 9] | 2.9 | 0.5

test system: P-gp; test: not given; settings: Table S4, Doan et al. dataset; both assays positive or both negative; cited from earlier work

Molecule | P-gp interaction
NC12CC3CC(CC(C3)C1)C2 [Amantadine] | N
c1ccc2c(c1)Sc1ccccc1N2C[C@H]1CN2CCC1CC2 [(R)-Mequitazine] | Y
O=C(O)c1cc(/N=N/c2ccc(S(=O)(=O)Nc3ccccn3)cc2)ccc1O [Sulfasalazine_a*, Sulfasalazine] | N
CN(C)CCCN1c2ccccc2CCc2ccccc21 [Imipramine] | N
C=CCOc1ccccc1OC[C@H](O)CNC(C)C [(R)-Oxprenolol] | N
OC[C@@H](O)[C@@H](O)[C@H](O)[C@H](O)CO [Mannitol] | N
OC(CCN1CCCCC1)(c1ccccc1)C1CC2C=CC1C2 [(R)-Biperiden] | N
OC(CCN1CCCCC1)(c1ccccc1)C1CC2C=CC1C2 [(S)-Biperiden] | N
C=CCOc1ccccc1OC[C@@H](O)CNC(C)C [(S)-Oxprenolol] | N
CN(C)C/C=C(/c1ccc(Br)cc1)c1cccnc1 [Zimeldine] | N
O=C(O)c1cc(/N=N/c2ccc(S(=O)(=O)Nc3ccccn3)cc2)ccc1O [Sulfasalazine_b*, Sulfasalazine] | N
Cc1c(O)cccc1C(=O)N[C@@H](CSc1ccccc1)[C@H](O)CN1C[C@H]2CCCC[C@H]2C[C@H]1C(=O)NC(C)(C)C [Nelfinavir] | Y
CNS(=O)(=O)Cc1ccc2[nH]cc(CCN(C)C)c2c1 [Sumatriptan] | N
N=C(N)NC(=O)Cc1c(Cl)cccc1Cl [Guanfacine] | N
C=CCN1CC[C@]23c4c5ccc(O)c4O[C@H]2C(=O)CC[C@@]3(O)[C@H]1C5 [Naloxone] | N
NC(=O)N1c2ccccc2C=Cc2ccccc21 [Carbamazepine] | N
CC(C)(C)NC(=O)[C@@H]1C[C@@H]2CCCC[C@@H]2CN1C[C@@H](O)[C@H](Cc1ccccc1)NC(=O)[C@H](CC(N)=O)NC(=O)c1ccc2ccccc2n1 [Saquinavir] | Y
N=C(N)N/N=C/c1c(Cl)cccc1Cl [Guanabenz] | N
(S)-Levomeprazine | Y
Clc1cccc(Cl)c1N=C1NCCN1 [Clonidine] | N
CNCCCC1c2ccccc2C=Cc2ccccc21 [Protriptylene] | Y
COCCc1ccc(OC[C@@H](O)CNC(C)C)cc1 [(S)-Metoprolol] | N
COc1ccc2c(c1)N(C[C@H](C)CN(C)C)c1ccccc1S2 [(R)-Levomeprazine] | Y
COc1ccc2c(c1)c(CC(=O)O)c(C)n2C(=O)c1ccc(Cl)cc1 [Indomethacin] | N
COCCc1ccc(OC[C@H](O)CNC(C)C)cc1 [(R)-Metoprolol] | N
c1ccc2c(c1)Sc1ccccc1N2CC1CN2CCC1CC2 [(S)-Mequitazine] | Y
CNC(C)(C)Cc1ccccc1 [Mephentermine] | N

same assay, conditions: Table S5, Doan et al. dataset; both assays positive or both negative; cited from earlier work

Molecule | P-gp interaction
O=C(O)c1cc(/N=N/c2ccc(S(=O)(=O)Nc3ccccn3)cc2)ccc1O [Sulfasalazine] | N

same assay, conditions: not told; cited from earlier work

Molecule | P-gp interaction
CC(C)(C)c1ccc([C@H](O)CCCN2CCC(C(O)(c3ccccc3)c3ccccc3)CC2)cc1 [(R)-terfenadine] | Y
CN(C)CC[C@H](c1ccc(Cl)cc1)c1ccccn1 [(R)-Chlorpheniramine] | N
CN(C)C(=O)C(CCN1CCC(O)(c2ccc(Cl)cc2)CC1)(c1ccccc1)c1ccccc1 [Loperamide] | Y
CCCC(C)(COC(N)=O)COC(N)=O [Meprobamate] | N
CN(C)CCO[C@@](C)(c1ccccc1)c1ccccn1 [(S)-Doxylamine] | N
CN(C)CC[C@@H](c1ccc(Cl)cc1)c1ccccn1 [(S)-Chlorpheniramine] | N
CN[C@@]1(c2ccccc2Cl)CCCCC1=O [(R)-Ketamine] | N
CN(C)CC[C@@H](c1ccccc1)c1ccccn1 [(S)-Pheniramine] | N
Cc1cc(=O)n(-c2ccccc2)n1C [Antipyrine] | N
CN[C@]1(c2ccccc2Cl)CCCCC1=O [(S)-Ketamine] | N
CN(C)CCO[C@](C)(c1ccccc1)c1ccccn1 [(R)-Doxylamine] | N
CC(=O)C[C@@H](c1ccccc1)c1c(O)c2ccccc2oc1=O [(S)-Warfarin] | N
O=C1CN=C(c2ccccc2)c2cc([N+](=O)[O-])ccc2N1 [Nitrazepam] | N
CC(=O)C[C@H](c1ccccc1)c1c(O)c2ccccc2oc1=O [(R)-Warfarin] | N
Nc1c2c(nc3ccccc13)CCCC2 [Tacrine] | N
CN(C)CC[C@H](c1ccccc1)c1ccccn1 [(R)-Pheniramine] | N
COc1ccc(CCN2CCC(Nc3nc4ccccc4n3Cc3ccc(F)cc3)CC2)cc1 [Astemizole] | Y
CC(C)(C)c1ccc([C@@H](O)CCCN2CCC(C(O)(c3ccccc3)c3ccccc3)CC2)cc1 [(S)-terfenadine] | Y

test system: MDCK-MDR1 cells; test: MDCK-MDR1 monolayer permeability assay; settings: 2 µM, 150 min
Experimental: as §1, §2, §3, §4, §5, §6

Molecule | Mean Efflux Ratio
N#CCNC(=O)[C@H](Cc1c[nH]cn1)NC(=O)OCc1ccccc1 [Compound 9] | 5.8

same assay, conditions: 2 µM, 150 min, 37°C, pH 7.4, triplicate mean

Molecule | Mean Papp A to B
N#CCNC(=O)[C@H](Cc1c[nH]cn1)NC(=O)OCc1ccccc1 [Compound 9] | 0.51 10^−6 cm/s
